Data from US7943619B2, “Isoxazolo-pyridazine derivatives” (priority 2007, dated 2011).

What follows are molecules tested against human GABA A receptor α5β3γ2 (α5 subunit) (Homo sapiens, UniProt P18507+P31644) (assay: biochemical). Details: not given.
Format: binding
Description: The affinity of compounds at GABA A receptor subtypes was measured by competition for [3H]flumazenil (85 Ci/mmol; Roche) binding to HEK293 cells expressing rat (stably transfected) or human (transiently transfected) receptors of composition α1β3γ2, α2β3γ2, α3β3γ2 and α5β3γ2.
Cell pellets were suspended in Krebs-tris buffer (4.8 mM KCl, 1.2 mM CaCl2, 1.2 mM MgCl2, 120 mM NaCl, 15 mM Tris; pH 7.5; binding assay buffer), homogenized by polytron for ca. 20 sec on ice and centrifuged for 60 min at 4° C. (50000 g; Sorvall, rotor: SM24=20000 rpm). The cell pellets were resuspended in Krebs-tris buffer and homogenized by polytron for ca. 15 sec on ice. Protein was measured (Bradford method, Bio-Rad) and aliquots of 1 mL were prepared and stored at −80° C.
Assays were incubated to equilibrium for 1 hour at 4° C. and harvested onto GF/C uni-filters (Packard) by filtration using a Packard harvester and washing with ice-cold wash buffer (50 mM Tris; pH 7.5). After drying, filter-retained radioactivity was detected by liquid scintillation counting. Ki values were calculated using Excel-Fit (Microsoft) and are the means of two determinations.

human GABA A receptor α5β3γ2 (α5 subunit), sequence (P31644 32-462): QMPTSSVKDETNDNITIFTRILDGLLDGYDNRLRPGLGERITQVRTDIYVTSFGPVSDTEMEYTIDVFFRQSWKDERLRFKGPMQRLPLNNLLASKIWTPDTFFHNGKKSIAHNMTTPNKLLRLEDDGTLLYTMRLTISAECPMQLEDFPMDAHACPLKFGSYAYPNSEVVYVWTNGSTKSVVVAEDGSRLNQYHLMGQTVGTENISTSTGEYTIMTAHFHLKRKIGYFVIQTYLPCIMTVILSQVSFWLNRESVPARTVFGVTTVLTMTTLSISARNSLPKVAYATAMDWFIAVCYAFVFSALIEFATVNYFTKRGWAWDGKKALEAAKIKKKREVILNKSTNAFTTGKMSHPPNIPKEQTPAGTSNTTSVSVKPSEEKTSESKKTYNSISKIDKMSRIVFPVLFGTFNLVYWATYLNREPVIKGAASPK
human GABA A receptor α5β3γ2 (α5 subunit), sequence (P28472 26-473 partner): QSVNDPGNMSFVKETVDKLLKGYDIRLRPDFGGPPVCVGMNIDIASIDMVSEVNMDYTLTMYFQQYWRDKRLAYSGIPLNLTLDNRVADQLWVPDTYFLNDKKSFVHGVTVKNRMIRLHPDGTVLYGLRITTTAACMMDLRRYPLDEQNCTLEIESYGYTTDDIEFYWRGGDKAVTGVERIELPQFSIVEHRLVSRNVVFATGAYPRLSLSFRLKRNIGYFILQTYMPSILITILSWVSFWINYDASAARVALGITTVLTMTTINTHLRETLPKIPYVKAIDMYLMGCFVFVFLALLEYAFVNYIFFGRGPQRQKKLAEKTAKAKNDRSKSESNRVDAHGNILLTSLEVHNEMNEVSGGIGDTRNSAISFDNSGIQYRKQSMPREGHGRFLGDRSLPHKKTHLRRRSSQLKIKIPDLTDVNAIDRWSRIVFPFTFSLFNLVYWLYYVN
human GABA A receptor α5β3γ2 (α5 subunit), sequence (P18507 40-475): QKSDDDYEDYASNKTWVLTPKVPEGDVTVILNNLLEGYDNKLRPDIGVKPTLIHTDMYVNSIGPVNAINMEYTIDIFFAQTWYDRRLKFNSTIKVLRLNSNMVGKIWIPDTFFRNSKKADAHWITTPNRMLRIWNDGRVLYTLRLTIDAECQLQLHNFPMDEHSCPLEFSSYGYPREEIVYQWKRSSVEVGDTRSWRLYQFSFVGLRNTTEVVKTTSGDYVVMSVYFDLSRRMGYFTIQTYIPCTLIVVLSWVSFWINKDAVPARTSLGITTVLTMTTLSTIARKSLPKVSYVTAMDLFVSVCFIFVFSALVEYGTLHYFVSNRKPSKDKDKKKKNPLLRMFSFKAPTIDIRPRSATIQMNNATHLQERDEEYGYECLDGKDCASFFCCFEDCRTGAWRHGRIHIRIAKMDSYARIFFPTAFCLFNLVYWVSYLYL

Molecule Cc1onc(-c2ccccn2)c1COc1ccc(C(=O)N2CCOCC2)nn1 [Example 96, [6-(5-Methyl-3-pyridin-2-yl-isoxazol-4-ylmethoxy)-pyridazin-3-yl]-morpholin-4-yl-methanone] has a Ki of 25.9 nM.

Same assay, conditions: competition for [3H]flumazenil binding, HEK293 cells transiently expressing human receptors; means of two determinations; read-out: hKi

Point of comparison: CCOC(=O)c1cc(C)c(OCc2c(-c3ccccc3)noc2C)nn1 [Example 40, 5-Methyl-6-(5-methyl-3-phenyl-isoxazol-4-ylmethoxy)-pyridazine-3-carboxylic acid ethyl ester], Ki 2.2 nM. Against it:
- CNC(=O)c1ccc(OCc2c(-c3ccncc3)noc2C)nn1 [Example 108, 6-(5-Methyl-3-pyridin-4-yl-isoxazol-4-ylmethoxy)-pyridazine-3-carboxylic acid methylamide] — 4.1-fold higher, 9 nM
- Cc1onc(-c2ccccn2)c1COc1ccc(C(=O)NCCO)nn1 [Example 101, 6-(5-Methyl-3-pyridin-2-yl-isoxazol-4-ylmethoxy)-pyridazine-3-carboxylic acid (2-hydroxy-ethyl)-amide] — 1.6-fold lower, 1.4 nM
- Cc1onc(-c2ccc(F)cc2)c1COc1ccc(C(=O)NC2CC2)nn1 [Example 62, 6-[3-(4-Fluoro-phenyl)-5-methyl-isoxazol-4-ylmethoxy]-pyridazine-3-carboxylic acid cyclopropylamide] — within 1.5-fold, 1.7 nM
- CCNC(=O)c1ccc(OCc2c(-c3ccccn3)noc2C)nn1 [Example 103, 6-(5-Methyl-3-pyridin-2-yl-isoxazol-4-ylmethoxy)-pyridazine-3-carboxylic acid ethylamide] — within 1.5-fold, 1.5 nM
- Cc1onc(-c2ccncn2)c1COc1ccc(C(=O)NCCO)nn1 [Example 114, 6-(5-Methyl-3-pyrimidin-4-yl-isoxazol-4-ylmethoxy)-pyridazine-3-carboxylic acid (2-hydroxy-ethyl)-amide] — 2.1-fold higher, 4.7 nM
- Cc1onc(-c2ccccc2)c1COc1ccc(N)nn1 [Example 15, 6-(5-Methyl-3-phenyl-isoxazol-4-ylmethoxy)-pyridazin-3-ylamine] — 1.9-fold higher, 4.1 nM
- Cc1onc(-c2ccc(F)cc2)c1COc1ccc(C(=O)NC2CCOCC2)nn1 [Example 63, 6-[3-(4-Fluoro-phenyl)-5-methyl-isoxazol-4-ylmethoxy]-pyridazine-3-carboxylic acid (tetrahydro-pyran-4-yl)-amide] — within 1.5-fold, 2.4 nM
- CCNC(=O)c1ccc(OCc2c(-c3ccncc3)noc2C)nn1 [Example 109, 6-(5-Methyl-3-pyridin-4-yl-isoxazol-4-ylmethoxy)-pyridazine-3-carboxylic acid ethylamide] — 6.5-fold higher, 14.2 nM
- Cc1onc(-c2ccccc2)c1COc1ccc(NC(=O)C2CC2)nn1 [Example 21, Cyclopropanecarboxylic acid [6-(5-methyl-3-phenyl-isoxazol-4-ylmethoxy)-pyridazin-3-yl]-amide] — 2.4-fold higher, 5.3 nM
- CCOC(=O)c1ccc(OCc2c(-c3ccc(F)cc3)noc2C)nn1 [Example 58, 6-[3-(4-Fluoro-phenyl)-5-methyl-isoxazol-4-ylmethoxy]-pyridazine-3-carboxylic acid ethyl ester] — within 1.5-fold, 3.3 nM
- Cc1onc(-c2ccccn2)c1COc1ccc(C(=O)NC2CC2)nn1 [Example 97, 6-(5-Methyl-3-pyridin-2-yl-isoxazol-4-ylmethoxy)-pyridazine-3-carboxylic acid cyclopropylamide] — within 1.5-fold, 1.6 nM
- Cc1onc(-c2ccc(F)cc2)c1COc1ccc(C(=O)NCC2CC2)nn1 [Example 59, 6-[3-(4-Fluoro-phenyl)-5-methyl-isoxazol-4-ylmethoxy]-pyridazine-3-carboxylic acid cyclopropylmethyl-amide] — 2.1-fold higher, 4.6 nM
- COc1ccc(OCc2c(-c3ccccc3)noc2C)nn1 [Example 14, 3-Methoxy-6-(5-methyl-3-phenyl-isoxazol-4-ylmethoxy)-pyridazine] — 5.6-fold higher, 12.3 nM
- Cc1onc(-c2ccccc2)c1COc1ccc(NC(=O)c2ccccc2)nn1 [Example 30, N-[6-(5-Methyl-3-phenyl-isoxazol-4-ylmethoxy)-pyridazin-3-yl]-benzamide] — 6.2-fold higher, 13.7 nM
- Cc1onc(-c2cccc(F)c2)c1COc1ccc(C(=O)NC2CC2)nn1 [Example 55, 6-[3-(3-Fluoro-phenyl)-5-methyl-isoxazol-4-ylmethoxy]-pyridazine-3-carboxylic acid cyclopropylamide] — 3-fold higher, 6.7 nM
- Cc1onc(-c2ccccc2)c1COc1ccc(Cl)nn1 [Example 1, 3-Chloro-6-(5-methyl-3-phenyl-isoxazol-4-ylmethoxy)-pyridazine] — 4.4-fold higher, 9.6 nM
- Cc1cc(OCc2c(-c3ccccc3)noc2C)nnc1C(=O)NC1CCOCC1 [Example 44, 4-Methyl-6-(5-methyl-3-phenyl-isoxazol-4-ylmethoxy)-pyridazine-3-carboxylic acid (tetrahydro-pyran-4-yl)-amide] — 1.5-fold higher, 3.4 nM
- Cc1onc(-c2ccccc2)c1COc1ccc(NC(=O)C2CCC2)nn1 [Example 22, Cyclobutanecarboxylic acid [6-(5-methyl-3-phenyl-isoxazol-4-ylmethoxy)-pyridazin-3-yl]-amide] — 4.6-fold higher, 10.1 nM
- COCCNC(=O)c1ccc(OCc2c(-c3ccccn3)noc2C)nn1 [Example 106, 6-(5-Methyl-3-pyridin-2-yl-isoxazol-4-ylmethoxy)-pyridazine-3-carboxylic acid (2-methoxy-ethyl)-amide] — within 1.5-fold, 1.6 nM
- CCOC(=O)c1ccc(OCc2c(-c3ccccn3)noc2C)nn1 [Example 93, 6-(5-Methyl-3-pyridin-2-yl-isoxazol-4-ylmethoxy)-pyridazine-3-carboxylic acid ethyl ester] — within 1.5-fold, 2.9 nM
- CCOC(=O)c1ccc(OCc2c(-c3cccc(F)c3)noc2C)nn1 [Example 49, 6-[3-(3-Fluoro-phenyl)-5-methyl-isoxazol-4-ylmethoxy]-pyridazine-3-carboxylic acid ethyl ester] — 4.4-fold higher, 9.6 nM
- Cc1onc(-c2ccncn2)c1COc1ccc(C(=O)NC(C)(C)CO)nn1 [Example 115, 6-(5-Methyl-3-pyrimidin-4-yl-isoxazol-4-ylmethoxy)-pyridazine-3-carboxylic acid (2-hydroxy-1,1-dimethyl-ethyl)-amide] — 6.7-fold higher, 14.8 nM
- Cc1cc(OCc2c(-c3ccccc3)noc2C)nnc1C(=O)NC(C)C [Example 46, 4-Methyl-6-(5-methyl-3-phenyl-isoxazol-4-ylmethoxy)-pyridazine-3-carboxylic acid isopropylamide] — 1.6-fold higher, 3.6 nM
- CCOC(=O)Nc1ccc(OCc2c(-c3ccccc3)noc2C)nn1 [Example 34, [6-(5-Methyl-3-phenyl-isoxazol-4-ylmethoxy)-pyridazin-3-yl]-carbamic acid ethyl ester] — 3.9-fold higher, 8.6 nM
- Cc1onc(-c2ccccn2)c1COc1ccc(C(=O)N2CCS(=O)(=O)CC2)nn1 [Example 99, (1,1-Dioxo-1λ6-thiomorpholin-4-yl)-[6-(5-methyl-3-pyridin-2-yl-isoxazol-4-ylmethoxy)-pyridazin-3-yl]-methanone] — 8.2-fold higher, 18.1 nM
- COC(=O)C(=O)Nc1ccc(OCc2c(-c3ccccc3)noc2C)nn1 [Example 28, N-[6-(5-Methyl-3-phenyl-isoxazol-4-ylmethoxy)-pyridazin-3-yl]-oxalamic acid methyl ester] — 2.3-fold higher, 5.1 nM
- Cc1onc(-c2ccc(Cl)cn2)c1CNc1ccc(C(=O)NC(C)(C)CO)nn1 [Example 119, 6-{[3-(5-Chloro-pyridin-2-yl)-5-methyl-isoxazol-4-ylmethyl]-amino}-pyridazine-3-carboxylic acid (2-hydroxy-1,1-dimethyl-ethyl)-amide] — 3.3-fold higher, 7.3 nM
- Cc1onc(-c2ccccn2)c1COc1ccc(C(=O)NC(C)C)nn1 [Example 95, 6-(5-Methyl-3-pyridin-2-yl-isoxazol-4-ylmethoxy)-pyridazine-3-carboxylic acid isopropylamide] — within 1.5-fold, 2.7 nM
- Cc1onc(-c2ccc(F)cc2)c1COc1ccc(C(=O)NCC(F)(F)F)nn1 [Example 60, 6-[3-(4-Fluoro-phenyl)-5-methyl-isoxazol-4-ylmethoxy]-pyridazine-3-carboxylic acid (2,2,2-trifluoro-ethyl)-amide] — 1.6-fold higher, 3.5 nM
- Cc1onc(-c2ccccc2)c1COc1ccc(NC(=O)C2CCOCC2)nn1 [Example 25, Tetrahydro-pyran-4-carboxylic acid [6-(5-methyl-3-phenyl-isoxazol-4-ylmethoxy)-pyridazin-3-yl]-amide] — 4-fold higher, 8.7 nM
- Cc1onc(-c2ccccn2)c1COc1ccc(C(=O)N2CCSCC2)nn1 [Example 104, [6-(5-Methyl-3-pyridin-2-yl-isoxazol-4-ylmethoxy)-pyridazin-3-yl]-thiomorpholin-4-yl-methanone] — 13-fold higher, 27.8 nM
- Cc1onc(-c2ccc(F)cn2)c1COc1ccc(Cl)nn1 [Example 110, 3-Chloro-6-[3-(5-fluoro-pyridin-2-yl)-5-methyl-isoxazol-4-ylmethoxy]-pyridazine] — within 1.5-fold, 1.6 nM
- Cc1onc(-c2ccccn2)c1COc1ccc(C(=O)NC(C)(C)CO)nn1 [Example 105, 6-(5-Methyl-3-pyridin-2-yl-isoxazol-4-ylmethoxy)-pyridazine-3-carboxylic acid (2-hydroxy-1,1-dimethyl-ethyl)-amide] — 1.8-fold higher, 4 nM
- Cc1onc(-c2ccccc2)c1COc1ccc(NC(=O)C(C)C)nn1 [Example 20, N-[6-(5-Methyl-3-phenyl-isoxazol-4-ylmethoxy)-pyridazin-3-yl]-isobutyramide] — 3.6-fold higher, 7.9 nM
- CCNC(=O)c1ccc(OCc2c(-c3cccc(F)c3)noc2C)nn1 [Example 51, 6-[3-(3-Fluoro-phenyl)-5-methyl-isoxazol-4-ylmethoxy]-pyridazine-3-carboxylic acid ethylamide] — 2.8-fold higher, 6.1 nM
